Source: patent US9598441B2, “Therapeutic compounds and methods” (Wayne State University, priority 2011, dated 2017)

Test system: MDA-MB-468 wild-type, vector and CARP-1 (Δ896-978) expressing cells
Experiment: MTT assay in stable HBC sublines expressing vector or CARP-1 (Δ896-978)
Type: cell-based, human
Settings: for growth of wild-type, vector and CARP-1 (Δ896-978) expressing cells (MTT): 0.1 and 1.0 μg/ml ADR, or 5 and 10 μM CFM-4; for sensitivity of CARP-1 (Δ896-978) expressing cells to inhibition: versus wild-type or vector cells
Excerpt: Routine maintenance and culture of MDA-MB-231, MDA-MB-468, SKBR-3 (all lack ER and have mutant p53), MCF-7, T47D (both have ER and wild-type p53) HBC cells (Runnebaum, I. B., Nagarajan, M., Bowman, M., Soto, D., and Sukumar, S. (1991). Proc. Natl. Acad. Sci. USA 88, 10657-10661), human prostate cancer PC3 and LnCAP cells, HCT-116 human colon cancer, human pancreatic cancer PANC-1 and BxPC-3, Burkett lymphoma Raji, diffuse large B-cell lymphoma WSU-DLCL2, follicular lymphoma WSU-FSCCL cells, cervical cancer HeLa, human mesothelial Met5a, human pleural malignant mesothelioma (MPM), murine MPM AB12 cells (Wang, Y., Rishi, A. K., Puliyappadamba, V. T., Sharma, S., Yang, H., Tarca, A., Dou, Q. P., Lonardo, F., Ruckdeschel, J. C., Pass, H. I., Wali, A. (2010) Can. Chemother. Pharmacol. 66, 455-466), and the green monkey kidney Cos-7 cells was carried out essentially as described (Rishi, A. K., Zhang, L., Boyanapalli, M., Wali, A., Mohammad, R. M., Yu, Y., Fontana, J. A., Hatfield, J. S., Dawson, M. I., Majumdar, A. P. N., and Reichert, U. (2003) J. Biol. Chem. 278, 33422-33435, Rishi, A. K., Zhang, L., Yu, Y., Jiang, Y., Nautiyal, J., Wali, A., Fontana, J. A., Levi, E., and Majumdar, A. P. N. (2006) J. Biol. Chem. 281(19), 13188-98, Zhang, L., Levi, E., Majumder, P., Yu, Y., Aboukameel, A., Du, J., Xu, H., Mohammad, R. M., Hatfield, J. S., Wali, A., Adsay, V., Majumdar, A. P. N., and Rishi, A. K. (2007) Mol. Cancer Ther. 6(5), 1661-1672, Levi, L., Zhang, L., Aboukameel, A., Rishi, S., Mohammad, R. M., Polin, L., Hatfield, J. S., and Rishi, A. K. Can. Chemother. Pharmacol. (in Press). The immortalized, non-tumorigenic human breast epithelial MCF-10A have been described before (Miller, F. R. (2000). J. Mammary Gland Biol. Neoplasia 5, 379-391). MCF-7 cells that are resistant to adriamycin (MCF-7/Adr/Vp) or tamoxifen (MCF-7-TAM) were obtained from Drs. Douglas Ross (University of Maryland Baltimore) and Kaladhar Reddy (Pathology Department, Wayne State University, Detroit, Mich.), respectively, and were maintained essentially following methods described before (Doyle, L. A., Yang, W., Abruzzo, L. V., Krogmann, T., Gao, Y., Rishi, A. K., and Ross, D. D. (1998). Proc. Natl. Acad. Sci. (USA), 95, 15665-15670, Nabha, S., Glaros, S., Hong, M., Lykkesfeidt, A. E., Schiff, R., Osborne, C. K., Reddy, K. B. (2005). Oncogene, 24, 3166-3176). The stable sublines were generated by transfecting the MDA-MB-468 cells with the vector or the recombinant pcDNA3/CARP-1 (Δ896-978)-myc-His plasmid followed by selection in the presence of 800 μg/ml neomycin using described methods (Rishi, A. K., Zhang, L., Boyanapalli, M., Wali, A., Mohammad, R M, Yu, Y., Fontana, J. A., Hatfield, J. S., Dawson, M. I., Majumdar, A. P. N., and Reichert, U. (2003) J. Biol. Chem. 278, 33422-33435).
Logarithmically growing cells were either untreated or treated with different agents for various time periods. The cells were lysed to prepare protein extracts. IP was carried out by incubating approximately 1 mg of the protein lysate with appropriate antibodies, and the immunoprecipitates or cell lysates were then electrophoresed on 9-12% SDS-polyacrylamide gels, and transferred to nitrocellulose membranes. The membranes were subsequently probed with various antibodies to determine expression/presence of the corresponding proteins. The cell growth inhibition was assessed by using MTT assay. […]

SMILES | growth of wild-type, vector and CARP-1 (Δ896-978) expressing cells (MTT) | sensitivity of CARP-1 (Δ896-978) expressing cells to inhibition | loss of viability of CARP-1 (Δ896-978) cells versus wild-type or vector-transfected cells (10 μM dose)
COc1cccc2c1C(=O)c1c(O)c3c(c(O)c1C2=O)C[C@@](O)(C(=O)CO)C[C@@H]3O[C@H]1C[C@H](N)[C@H](O)[C@H](C)O1 [ADR, adriamycin, reference compound] | suppressed growth | generally more sensitive | 
O=C1N(Cc2ccccc2Cl)c2ccccc2C12NN=C(c1ccccc1)S2 (centres unmarked) [CFM-4, 1-(2-chlorobenzyl)-5′-phenyl-3′H-spiro[indoline-3,2′-[1,3,4]thiadiazol]-2-one] | suppressed growth | generally more sensitive | greater loss of viability
